Patent publication US8053413B2, “Methods for treating sleep disorders by cholecystokinin (CCK) receptor B antagonists” (The Board of Trustees of the University of Illinois, priority 2005, dated 2011)

Key:
[1] = test system: sleep apnea (OSAS, central apnea); details: cited from earlier work; for effect in individuals with obstructive sleep apnea (OSAS) / effect in individuals with central apnea: patients; for effect in individuals with central apnea: primarily central apneas
[2] = test system: spontaneous sleep apnea in the rat; test: Spontaneous sleep apnea in the rat: plethysmograph, EEG and EMG recording after i.p. injection; format: in vivo, Sprague-Dawley rats; details: for SP apnea index, % of placebo value: spontaneous (SP) apneas, p<0.03; for efficacy against sleep apnea (rate of apneas per hour of NREM and REM sleep): 6 hours polygraphic recording, i.p.
Experimental: Adult, male Sprague-Dawley rats (Sasco-King, Wilmington, Mass.), usually 8 per test group with an average weight of 300 grams, are maintained on a 12-hour light/12-hour dark cycle for one week. The animals are housed in individual cages and given ad libitum access to food and water. Following the one week of acclimatization, animals are subjected to the following surgical procedures.
Acclimatized animals are anesthetized using a mixture of ketamine (80 mg/kg) and xylazine (5 mg/kg) at a volume of 1 ml/kg body weight for the implantation of cortical electrodes for electroencephalogram (EEG) recording and neck muscle electrodes for electromyogram (EMG) recording. The surface of the skull is exposed surgically and cleaned with a 20% solution of hydrogen peroxide followed by a solution of 95% isopropyl alcohol. A dental preparation of sodium fluoride (FLURA-GEL; Saslow Dental, Mt. Prospect, Ill.) is subsequently applied to harden the skull above the parietal cortex and allowed to remain in place for 5 minutes. The fluoride mixture is then removed from the skull above the parietal cortex. The EEG electrodes consisting of four stainless steel machine screws, having leads attached thereto, are threaded into the skull to rest on the dura over the parietal cortex. A thin layer of JUSTI resin cement (Saslow Dental, Mt. Prospect, Ill.) is applied to cover the screw heads (of screws implanted in the skull) and surrounding skull to further promote the adhesion of the implant. EMG electrodes consisting of two ball-shaped wires are inserted into the bilateral neck musculature. All leads (i.e., EEG and EMG leads) are soldered to a miniature connector (39F1401; Newark Electronics, Schaumburg, Ill.). The entire assembly is subsequently fixed to the skull with dental cement.
Physiological parameters from each animal prepared as described herein are recorded on two to five occasions in random order, with recordings for an individual animal separated by at least 3 days. Fifteen minutes prior to each recording an animal receives a systemic injection (1 mL/kg intraperitoneal bolus) of either saline (control) or an active dose of a drug treatment.
Respiration is recorded by placing each animal, unrestrained, inside a single chamber plethysmograph (PLYUNIR/U; Buxco Electronics, Sharon, Conn.; dimension 6 inches×10 inches×6 inches) ventilated with a bias flow of fresh room air at a rate of 2 Liters/minute. A cable plugged onto the animal's connector and passed through a sealed port is used to collect the bioelectrical activity from the head implant.
Sleep and waking states are assessed using conventional software (Benington, et al. (1994) Sleep 17:28-36) to analyze the biparietal EEG and nuchal EMG signals on 10-second epochs. The software discriminates wakefulness (W) as a high frequency low amplitude EEG with a concomitant high EMG tone, NREM sleep by increased spindle and […] activity together with decreased EMG tone, and REM sleep by a […] activity and an absence of EMG tone. Sleep efficiency is measured as the percentage of total recorded epochs staged as NREM or REM sleep.
An accepted physiological animal model of spontaneous sleep apnea in the rat (see Radulovacki & Carley (2002) In: Sleep-Related Breathing Disorder: Experimental Models and Therapeutic Potential (Carley & Radulovacki, eds.) Marcel Dekker: New York, pp. 3-16) is used to assess the effects of test drugs. More specifically, sleep apneas, defined as cessation of respiratory effort for at least 2.5 seconds, are scored for each recording session and associated with the stage of sleep in which they occur (i.e., NREM or REM sleep). The duration requirement of 2.5 seconds represents at least two “missed” breaths, which is therefore analogous to a 10 second apnea duration requirement in humans, which also reflects two to three missed breaths. […]

[3] = test system: CCK-induced depolarization of nodose ganglion neurons; details: isolated nodose ganglion cells; cited from earlier work
[4] = test system: central apneas; details: rats with frequent central apneas during all sleep stages; cited from earlier work
[5] = test system: sleep apnea; details: cited from earlier work
[6] = individuals with obstructive sleep apnea

O=C1CC2(CCCC2)CC(=O)N1CCCCN1CCN(c2ncccn2)CC1 [Buspirone]
post-surgical apneustic breathing ([1]; one child): eliminate post-surgical apneustic breathing
patients with reduced apnea index ([1]; patients with sleep apnea syndrome): 4 of 5

Cc1cc(C)c(NC(=O)C[C@H](CC(=O)O)c2cccc3ccccc23)c(C(=O)N2CCC3(CCCC3)CC2)c1 [CR2945]
SP apnea index, % of placebo value ([2]; 0.5 mg/kg i.p. in DMSO, rats): 42%
SP apnea index, % of placebo value ([2]; 5.0 mg/kg i.p. in DMSO, rats): 31%
REM SP apnea index ([2]; all four doses 0.005, 0.05, 0.5, 5.0 mg/kg i.p., p<0.04 for each): significantly reduced
frequency of spontaneous central apnea expression ([2]; all sleep stages, rats, systemic injection): significantly reduced
apnea duration ([2]; any dose 0.005-5.0 mg/kg i.p., p=0.7): not affected

Cc1cccc(NC(=O)N[C@@H]2N=C(c3ccccc3)c3ccccc3N(C)C2=O)c1 [L-365,260]
efficacy against sleep apnea (rate of apneas per hour of NREM and REM sleep) ([2]; rats): dose-dependent efficacy
potency in blocking CCK-induced depolarization of nodose ganglion neurons [3]: less potent

COc1cc(N)c(Cl)cc1C(=O)N[C@H]1CN2CCC1CC2 [R-zacopride]
apnea frequency [4]: reduce apnea frequency

CC(=O)Nc1nnc(S(N)(=O)=O)s1 [acetazolamide]
effect in individuals with obstructive sleep apnea (OSAS) [1]: increase in obstructive apneas
effect in individuals with central apnea [1]: variable improvement

Nc1ncnc2c1ncn2[C@@H]1O[C@H](CO)[C@@H](O)[C@H]1O [adenosine]
reduction of apnea in an animal model of sleep apnea [5]: somewhat effective in reducing apnea

CN1C(=O)[C@@H](NC(=O)c2cc3ccccc3[nH]2)N=C(c2ccccc2)c2ccccc21 [devazepide]
efficacy against sleep apnea (rate of apneas per hour of NREM and REM sleep) ([2]; rats): dose-dependent efficacy
potency in blocking CCK-induced depolarization of nodose ganglion neurons [3]: highly potent

CCN1CC(CCN2CCOCC2)C(c2ccccc2)(c2ccccc2)C1=O (centres unmarked) [doxapram]
average arterial oxygen saturation [1, 6]: does not alter
length of apneas [1, 6]: decreasing the length of apneas

CCCCCN(CCCCC)C(=O)C(CCC(=O)O)NC(=O)c1ccc(Cl)c(Cl)c1 (centres unmarked) [lorglumide]
efficacy against sleep apnea (rate of apneas per hour of NREM and REM sleep) ([2]; rats): dose-dependent efficacy

CN1CCN2c3ncccc3Cc3ccccc3C2C1 (centres unmarked) [mirtazapine]
apnea frequency [4]: reduce apnea frequency
reduction of apnea frequency ([1]; one study of OSAS patients): 50%

C=CCN1CC[C@]23c4c5ccc(O)c4O[C@H]2C(=O)CC[C@@]3(O)[C@H]1C5 [naloxone]
effect in individuals with obstructive sleep apnea (OSAS) [1]: only slightly helpful

Cc1nccn1CC1CCc2c(c3ccccc3n2C)C1=O (centres unmarked) [ondansetron]
apnea frequency [4]: reduce apnea frequency
effect in individuals with obstructive sleep apnea (OSAS) [1]: failed to demonstrate any effect

CNCCCC1c2ccccc2C=Cc2ccccc21 [protriptyline]
effect in individuals with obstructive sleep apnea (OSAS) [1]: variable results
side effects ([1]; several small trials in individuals with OSAS): frequent and significant side effects

Cn1c(=O)c2[nH]cnc2n(C)c1=O [theophylline]
effect in individuals with obstructive sleep apnea (OSAS) [1]: of no use
effect in individuals with central apnea [1]: may benefit

CCCCCc1cc(O)c2c(c1)OC(C)(C)[C@@H]1CCC(C)=C[C@@H]21 [Δ9-tetrahydrocannibinol]
reduction of apnea in an animal model of sleep apnea [5]: reduce sleep apneas

medroxyprogesterone
effect in individuals with obstructive sleep apnea (OSAS) [1]: no consistent benefit
